Experimental data: patent publication US4233291A (priority 1977, dated 1980)

Assays:
leukemic cells L 1210 = tested on: leukemic cells L 1210; parameters: species or system mice; conditions: mouse, in vivo
[1] = tested on: larvae of schistosoma mansoni; assay: Release of 51 chromium from larvae of schistosoma mansoni, cytotoxicity in vivo; conditions: macrophages of the rat stimulated in vivo
Description: The depsipeptide from Fusarium equiseti has been tested to determine its action in vivo on the cytotoxicity induced in the intraperitoneal macrophages of the rat against the larvae of schistosoma mansoni.
The macrophages are stimulated either in vitro or in vivo and are contacted with a suspension of larvae of schistosoma mansoni previously tagged with 51 chromium.
This measure reflects the significance of cellular lesions on the surface of the schistosomules. The radio activity released in the medium is expressed as a percentage of the total radio-activity present in the schistosomules at the beginning of the experiments.

[2] = tested on: peritoneal macrophages from unstimulated rats (Fisher strain); assay: Stimulation of the activities of the macrophages, cultivated with the substance; format: cell-based; conditions: 16 hours incubation
Procedure: The peritoneal macrophages from unstimulated rats (Fisher strain) are prelevated through peritoneal washing and isolation on plastic rack. They are cultivated for a night with dosages of the depsipeptide ranging from 1 picogramm to 1 nanogramm/ml.
The content in proteins, in lysosomal β-glucoronidase, and in cytoplasmic leucine-amino peptidase are determined on the cells previously lysed with 0.05% Triton X-100.
In the same manner, incubation has also been performed with a solution of lipopolysaccharide from Escherichia coli and Muramyldipeptide as reference substances.
Amounts of cellular enzymes and proteins in the macrophages after 16 hours incubation.
The content in proteins is expressed in g/10^6 cells and that in β-glucuronidase in mMol of substrate hydrolysed by 10^6 cells per hour.

[3] = 1 ng/ml (row printed after the first 100 ng/ml)
[4] = 10 ng/ml (second row so printed)
[5] = 100 ng/ml (second row so printed, last row)

With O=P1(N(CCCl)CCCl)NCCCO1 (stereo not drawn) [Cyclophosphamide] the survival time (leukemic cells L 1210) was “extends in a statiscally significative manner”.
CC(=O)N[C@@H]1[C@@H](O[C@H](C)C(=O)N[C@@H](C)C(=O)N[C@H](CCC(=O)O)C(N)=O)[C@H](O)[C@@H](CO)O[C@H]1O [Muramyldipeptide] was tested, and the “release of 51 Cr (change)” value ([1]; 1 g) was “+6%”, the “release of 51 Cr (change)” value ([1]; 100 g) was “+10%” and the Proteins ([2]; 1 pg/ml) was 46,1 ± 2,2 g/10^6 cells. For the same compound, the β-glucuronidase ([2]; 1 pg/ml) was 36,5 ± 0,1 mMol of substrate hydrolysed b, the Proteins ([2]; 10 pg/ml) was 44,8 ± 0,7 g/10^6 cells and the β-glucuronidase ([2]; 10 pg/ml) was 36,3 ± 6,4 mMol of substrate hydrolysed b. For the same compound, the Proteins ([2]; 100 pg/ml) was 44,6 ± 1,9 g/10^6 cells, the β-glucuronidase ([2]; 100 pg/ml) was 41,0 ± 2,9 mMol of substrate hydrolysed b and the Proteins [2, 3] was 45,1 ± 0,9 g/10^6 cells. For the same compound, the β-glucuronidase [2, 3] was 30,6 ± 3,8 mMol of substrate hydrolysed b, the Proteins ([2]; 1 ng) was 44,0 ± 1,8 g/10^6 cells and the β-glucuronidase ([2]; 1 ng) was 34,0 ± 5,3 mMol of substrate hydrolysed b. For the same compound, the Proteins [2, 4] was 48,1 ± 1,8 g/10^6 cells, the β-glucuronidase [2, 4] was 32,2 ± 3,0 mMol of substrate hydrolysed b and the Proteins ([2]; 10 ng/ml) was 43,4 ± 1,8 g/10^6 cells. The β-glucuronidase ([2]; 10 ng/ml) was 39,6 ± 6,1 mMol of substrate hydrolysed b, the Proteins [2, 5] was 55,3 ± 3,1 g/10^6 cells and the β-glucuronidase [2, 5] was 39,0 ± 1,6 mMol of substrate hydrolysed b. For the same compound, the Proteins ([2]; 100 ng/ml) was 40,5 ± 0,7 g/10^6 cells and the β-glucuronidase ([2]; 100 ng/ml) was 23,9 ± 6,2 mMol of substrate hydrolysed b.
